In patent publication US20110021530A1, “PYRIDAZINE DERIVATIVES AND THEIR USE AS THERAPEUTIC AGENTS IN THE TREATMENT OF SKIN DISORDERS” (XENON PHARMACEUTICALS INC., priority 2008, published 2011):
Marks after values point to notes of the source that are not given here.

Legend:
[1] = target: T1, stearoyl-CoA desaturase (SCD) (Mus musculus, UniProt P13516); assay: HTS microsomal assay of stearoyl-CoA desaturase inhibition using mouse liver microsomes; type: biochemical; details: % SCD enzyme activity remaining at 10 μM test compound
T1 construct: Reactions are started by adding 2 mg of microsomal protein; from tissue; host or cells: liver microsomes of male ICR mice on a high-carbohydrate, low fat diet
T1 sequence (P13516 1-355): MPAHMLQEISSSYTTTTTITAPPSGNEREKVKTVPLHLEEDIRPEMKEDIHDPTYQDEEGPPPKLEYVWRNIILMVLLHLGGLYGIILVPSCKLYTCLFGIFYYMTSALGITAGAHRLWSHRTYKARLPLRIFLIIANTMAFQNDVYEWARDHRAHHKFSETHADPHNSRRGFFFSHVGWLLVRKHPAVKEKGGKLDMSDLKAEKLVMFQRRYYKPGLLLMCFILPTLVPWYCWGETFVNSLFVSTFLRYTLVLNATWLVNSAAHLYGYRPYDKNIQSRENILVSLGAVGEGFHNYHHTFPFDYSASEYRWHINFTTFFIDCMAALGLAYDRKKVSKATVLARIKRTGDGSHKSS
Experimental: The absence of mitochondrial contamination is enzymatically assessed.
The compounds are analyzed with an HTS microsomal assay.

SCD = target: T2, SCD (Mus musculus, UniProt P13516); assay: Mouse SCD IC50 determination for compounds active in the HTS assay; type: biochemical
T2 sequence (P13516 1-355): T1 sequence (P13516 1-355)
Experimental: The compounds are analyzed with an HTS microsomal assay. The activities are defined in terms of % SCD enzyme activity remaining at the selected concentration (e.g., 10 μM) of the test compounds.

HEPG2 = HEPG2 IC50; type: cell-based; details: Homo sapiens
sebaceous glands = assay: Effect of topically administered LCF369 on the sebaceous glands of NMRI mice (histomorphometry); type: in vivo, female Crl:NMRI mice; details: for atrophogenic effect (recovery): 1% LCF369 7-day treatment
Experimental: LCF369 is prepared either in a solution of ethanol/propylene glycol (3/7, v/v) or in topical formulations at 1.0, 0.5 or 0.1% for testing in female Crl:NMRI mice. In general, shaved application sites of approximately 2.5 cm^2 on the back of mice are treated twice daily (once on weekends or at study termination) with 50 μl of the LCF369 preparations. To prevent the animals from potential oral uptake of the epicutaneously applied compounds, they are fitted with ruffs and housed individually. After the last application, the animals are euthanised; the treated sites dissected and prepared for histological sections. Hematoxilin/eosin (HE)-stained 3 μm-thick sections are prepared from formalin-fixed, paraffin-embedded tissue. From each animal, one HE-stained section per site is histomorphometrically examined. The entire sections of approximately 10 mm length are evaluated microscopically (200×) for sebaceous glands. The mean size and mean number (per mm^2 dermis) of sectioned alveolar units of the sebaceous glands are determined in a coded fashion with an image analyzer (Axiovision, Zeiss). For statistical analysis, morphometric data are analyzed with a T-test or Mann-Whitney rank sum test. Frozen tissue sections (5 μm) are used for oil red O (lipid) staining.
Groups of 5 mice are treated with 50 μl of 1% or 0.1% LCF369 twice daily (except on weekends, when the animals are treated once daily and on study termination) for 8 days (i.e. 14 applications in total). Four control animals are treated similarly with the vehicle alone. In life, the animals are observed for clinical signs and macroscopic changes of the application sites. One day after the last application, an evaluation is performed. In animals treated with 1.0% LCF369, untreated skin samples distant from the treated sites are also collected in order to assess systemic activity due to percutaneous absorption of LCF369.
Groups of 4 mice are treated with 1.0% LCF369 twice daily for 2, 4, 6 and 8 days (i.e. up to 16 applications). Control groups remain untreated or are treated with the vehicle alone twice daily for 8 days.
LCF369 is tested at 1.0%, 0.5% and 0.1%, groups of 6 mice are treated twice daily for 7 consecutive days. Evaluation is performed on the day following the 14th application.
A 7-day b.i.d. (twice daily) treatment schedule (except on week ends when the animals were treated once daily) with 1.0% LCF369 is applied to groups of 7 mice which are evaluated on days 8 (one day after the 14th application), 24 and 41. For comparison, skin sections from animals treated with vehicle are examined on day 8 and skin samples from untreated animals of the same delivery were examined in parallel on days 8 and 41.
Three different formulations containing 0.5% LCF369 are tested: i) emulsion gel with the penetration enhancer SEPA-9™ (batch 92.66.01-ra), ii) emulsion gel without a penetration enhancer (batch 9450-05-Ra), and iii) a formulation containing particulate compound (“follicular targeting formulation”). They are evaluated after 9 or 13 applications.

[2] = Solubility in co-solvents; type: physicochemical; details: compared with other co-solvents
[3] = 0.1% LCF369 topical, 8 days (14 applications), treated sites (locally), day 9, mean (SD), 5 animals
[4] = 0.5% LCF369 emulsion gel containing SEPA-9, 9 applications, mean (SD), 3 animals
[5] = 0.5% LCF369 emulsion gel containing SEPA-9, 13 applications, mean (SD), 3 animals
[6] = 0.5% LCF369 twice daily 7 days, vs vehicle-treated controls
[7] = 1.0% LCF369 topical, 8 days (14 applications), treated sites (locally), day 9, mean (SD), 5 animals
[8] = 1.0% LCF369 topical, 8 days, sites distant from the treated sites (distantly), day 9, mean (SD), 5 animals
[9] = 1% LCF369 twice daily 7 days, vs vehicle-treated controls
[10] = 1.0% LCF369 twice daily for 8 days as printed, vs vehicle, time point of this value not stated
[11] = 1.0% LCF369 twice daily, 2 days of treatment, one day after last application, 4 animals
[12] = 1.0% LCF369 twice daily, 4 days of treatment
[13] = 1.0% LCF369 twice daily, 6 days of treatment
[14] = 1.0% LCF369 twice daily, 8 days of treatment
[15] = 1.0% LCF369 twice daily, after 4 days, vs vehicle
[16] = 1.0% LCF369 twice daily, after 6 days, vs vehicle
[17] = 1.0% LCF369 twice daily, after 8 days, vs vehicle
[18] = LCF 1%, 7-day b.i.d. treatment, evaluation day 8 (one day after last application), 7 animals
[19] = LCF 1%, 7-day treatment, evaluation day 24 (17 days after last application)
[20] = LCF 1%, 7-day treatment, evaluation day 41 (34 days after last application)
[21] = LCF369 0.1% (w/v) twice daily for 7 days
[22] = LCF369 0.5% (w/v) twice daily for 7 days
[23] = LCF369 1.0% (w/v) twice daily for 7 days, one day after last application, 6 animals
[24] = LCF369-treated vs vehicle-treated skin
[25] = one day after the 7 days-treatment period with 1% LCF369

O=C(NCCC1CC1)c1ccc(N2CCN(Cc3ccccc3C(F)(F)F)CC2)nn1 [6-[4-(2-TRIFLUOROMETHYLBENZYL)PIPERAZIN-1-YL]PYRIDAZINE-3-CARBOXYLIC ACID (2-CYCLOPROPYLETHYL)AMIDE]
Mouse microsome SCD activity % remaining @ 10 μM [1]: 12%
IC50 (SCD): 90 nM
IC50 (HEPG2): 40 nM
melting point: 106 to 108 °C

O=C(NCCC1CC1)c1ccc(N2CCN(C(=O)c3cc(F)ccc3C(F)(F)F)CC2)nn1 [LCF369, 6-[4-(5-Fluoro-2-trifluoromethylbenzoyl)piperazin-1-yl]pyridazine-3-carboxylic acid (2-cyclopropylethyl)amide]
atrophogenic effect (sebaceous glands; 0.1% LCF369, 8 days): little or no atrophogenic effects
Number of sebaceous glandular units (sebaceous glands; [3]): 34.3 (4.1) per mm^2 dermis
Size of sebaceous glandular units (sebaceous glands; [3]): 1090 (200) μm^2
Number of sebaceous glandular units (sebaceous glands; [4]): 10.6 (5.89)*
Size (μm^2) of sebaceous glandular units (sebaceous glands; [4]): 745.8 (339.3)*** μm^2
Number of sebaceous glandular units (sebaceous glands; [5]): 10.1 (3.48)*
Size (μm^2) of sebaceous glandular units (sebaceous glands; [5]): 946.1 (134.0)*** μm^2
hyper/parakeratosis and acanthosis in skin sections (sebaceous glands; 0.5% LCF369 formulation containing SEPA-9 vs placebo-treated (vehicle-treated) samples): hyper/parakeratosis and acanthosis is more pronounced
effect on sebaceous glands (sebaceous glands; 0.5% LCF369 formulation containing penetration enhancer SEPA-9, 9 and 13 applications): significant atrophy of sebaceous glands
reduction of mean size of sebaceous glands (sebaceous glands; [6]): 48%
reduction of numbers of sebaceous glands per mm^2 dermis (sebaceous glands; [6]): 38%
atrophogenic effect (recovery) (sebaceous glands; day 24): substantially reduced
atrophogenic effect (recovery) (sebaceous glands; day 41): almost completely absent
differences in numbers and sizes of sebaceous glands at sites distant from the LCF369 treatments (sebaceous glands; 1.0% LCF369, 8 days, distant sites): no significant differences
reduction of sebaceous glands in numbers, factor (sebaceous glands; 1.0% LCF369, 8 days, vs vehicle, p<0.001): about 2.5
reduction of sebaceous glands in sizes (sebaceous glands; 1.0% LCF369, 8 days, vs vehicle, p<0.01): about 1.9 fold
Number of sebaceous glandular units (sebaceous glands; [7]): 13.7 (8.2) *** per mm^2 dermis
Size of sebaceous glandular units (sebaceous glands; [7]): 571 (200) ** μm^2
Number of sebaceous glandular units (sebaceous glands; [8]): 28.4 (6.0) per mm^2 dermis
Size of sebaceous glandular units (sebaceous glands; [8]): 1090 (250) μm^2
reduction of numbers of sebaceous glands (sebaceous glands; [9]): 57%
reduction of size of sebaceous glands (sebaceous glands; [9]): 60%
treatment period after which the effect is statistically significant (sebaceous glands; 1.0% LCF369 twice daily (8 applications)): 4 days
progressive decrease in the numbers of sebaceous glands (sebaceous glands; [10]): 12%
progressive decrease in the size of sebaceous glands (sebaceous glands; [10]): 19%
Number of sebaceous glandular units (sebaceous glands; [11]): 24.8 per mm^2 dermis
Size (μm^2) of sebaceous glandular units (sebaceous glands; [11]): 1095 μm^2
Number of sebaceous glandular units (sebaceous glands; [12]): 18.0 per mm^2 dermis
Size (μm^2) of sebaceous glandular units (sebaceous glands; [12]): 875 μm^2
Number of sebaceous glandular units (sebaceous glands; [13]): 12.6 per mm^2 dermis
Size (μm^2) of sebaceous glandular units (sebaceous glands; [13]): 613 μm^2
Number of sebaceous glandular units (sebaceous glands; [14]): 7.0 per mm^2 dermis
Size (μm^2) of sebaceous glandular units (sebaceous glands; [14]): 374 μm^2
decrease of mean size of sebaceous glands (sebaceous glands; [15]): 35%
reduction of numbers of sebaceous glands (sebaceous glands; [15]): 35%
decrease of mean size of sebaceous glands (sebaceous glands; [16]): 35%
reduction of numbers of sebaceous glands (sebaceous glands; [16]): 54%
decrease of mean size of sebaceous glands (sebaceous glands; [17]): 72%
reduction of numbers of sebaceous glands (sebaceous glands; [17]): 75%
Number of sebaceous glandular units (sebaceous glands; [18]): 9.28
Size (μm^2) of sebaceous glandular units (sebaceous glands; [18]): 708 μm^2
Number of sebaceous glandular units (sebaceous glands; [19]): 17.4
Size (μm^2) of sebaceous glandular units (sebaceous glands; [19]): 1154 μm^2
Number of sebaceous glandular units (sebaceous glands; [20]): 21
Size (μm^2) of sebaceous glandular units (sebaceous glands; [20]): 1456 μm^2
Number of sebaceous glandular units (sebaceous glands; [21]): 23.8 per mm^2 dermis
Size (μm^2) of sebaceous glandular units (sebaceous glands; [21]): 1396 μm^2
Number of sebaceous glandular units (sebaceous glands; [22]): 14.5 per mm^2 dermis
Size (μm^2) of sebaceous glandular units (sebaceous glands; [22]): 870 μm^2
Number of sebaceous glandular units (sebaceous glands; [23]): 10.1 per mm^2 dermis
Size (μm^2) of sebaceous glandular units (sebaceous glands; [23]): 675 μm^2
histochemical (HE) staining of skin, sebaceous glands (FIG. 2B) (sebaceous glands; [24]): fewer and smaller (atrophic) sebaceous glands
oil red O staining, lipids associated with hair shafts (FIG. 3B) (sebaceous glands; [24]): significantly reduced lipids associated with hair shafts
minimal statistically significant effective concentration (sebaceous glands; applied twice daily (50 μL each time) for 7 days): 0.5%
reduction of mean size of sebaceous glands (sebaceous glands; [25]): 50%
reduction of numbers of sebaceous glands (sebaceous glands; [25]): 57%
concentration at which efficacy is seen (sebaceous glands; topical application): ≥ 0.4%
treatment time at which efficacy is seen (sebaceous glands; topical application): ≥ 4 days
solubility in benzyl alcohol [2]: surprisingly good solubility
